Test results: PubChem BioAssay (NCI)
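Step 1: Grow cells in 96-well plates. Step 2: Expose to compound for 48 hours at 5 concentrations. Step 3: Interpolate endpoints linearly; if unreached, use highest concentration. At the GI50, growth is halved. At the TGI there is no net growth.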

Columns and labels:
Assay in all cases: growth of human tumour cells (NCI), 48 h
786-0 renal = system: 786-0 renal
A498 renal = system: A498 renal
A549 NSCLC = system: A549 NSCLC
ACHN renal = system: ACHN renal
BT-549 breast = system: BT-549 breast
CAKI-1 renal = system: CAKI-1 renal
CCRF-CEM leukemia = system: CCRF-CEM leukemia
COLO 205 colon = system: COLO 205 colon
DU-145 prostate = system: DU-145 prostate
HCC-2998 colon = system: HCC-2998 colon
HCT-116 colon = system: HCT-116 colon
HCT-15 colon = system: HCT-15 colon
HL-60(TB) leukemia = system: HL-60(TB) leukemia
HOP-62 NSCLC = system: HOP-62 NSCLC
HOP-92 NSCLC = system: HOP-92 NSCLC
HS 578T breast = system: HS 578T breast
HT29 colon = system: HT29 colon
IGROV1 ovarian = system: IGROV1 ovarian
K-562 leukemia = system: K-562 leukemia
KM12 colon = system: KM12 colon
LOX IMVI melanoma = system: LOX IMVI melanoma
M14 melanoma = system: M14 melanoma
MALME-3M melanoma = system: MALME-3M melanoma
MCF7 breast = system: MCF7 breast
MDA-MB-231 breast = system: MDA-MB-231 breast
MDA-MB-435 = system: MDA-MB-435
MOLT-4 leukemia = system: MOLT-4 leukemia
NCI-H226 lung = system: NCI-H226 lung
NCI-H23 lung = system: NCI-H23 lung
NCI-H460 lung = system: NCI-H460 lung
NCI-H522 lung = system: NCI-H522 lung
NCI/ADR-RES ovarian = system: NCI/ADR-RES ovarian
OVCAR-3 ovarian = system: OVCAR-3 ovarian
OVCAR-4 ovarian = system: OVCAR-4 ovarian
OVCAR-5 ovarian = system: OVCAR-5 ovarian
OVCAR-8 ovarian = system: OVCAR-8 ovarian
PC-3 prostate = system: PC-3 prostate
RPMI-8226 leukemia = system: RPMI-8226 leukemia
RXF 393 renal = system: RXF 393 renal
SF-268 CNS = system: SF-268 CNS
SF-295 CNS = system: SF-295 CNS
SF-539 CNS = system: SF-539 CNS
SK-MEL-2 melanoma = system: SK-MEL-2 melanoma
SK-MEL-28 melanoma = system: SK-MEL-28 melanoma
SK-MEL-5 melanoma = system: SK-MEL-5 melanoma
SK-OV-3 ovarian = system: SK-OV-3 ovarian
SN12C renal = system: SN12C renal
SNB-19 CNS = system: SNB-19 CNS
SNB-75 CNS = system: SNB-75 CNS
SR leukemia = system: SR leukemia
SW-620 colon = system: SW-620 colon
T-47D breast = system: T-47D breast
TK-10 renal = system: TK-10 renal
U251 CNS = system: U251 CNS
UACC-257 melanoma = system: UACC-257 melanoma
UACC-62 melanoma = system: UACC-62 melanoma
UO-31 renal = system: UO-31 renal

## COc1ccc(C2=C(c3cn(C)c4ccccc34)C(=O)NC2=O)cc1
786-0 renal
  GI50: > 25000 nM
  TGI: > 25 µM
A498 renal
  GI50: 6.74 µM
  TGI: > 25 µM
A549 NSCLC
  GI50: 14.1 µM
  TGI: > 25 µM
ACHN renal
  GI50: > 25000 nM
  TGI: > 25 µM
BT-549 breast
  GI50: > 25000 nM
  TGI: > 25 µM
CAKI-1 renal
  GI50: > 22.3 µM
  TGI: > 25 µM
CCRF-CEM leukemia
  GI50: 16.3 µM
  TGI: > 25 µM
COLO 205 colon
  GI50: 10.7 µM
  TGI: > 25 µM
DU-145 prostate
  GI50: > 25 µM
  TGI: > 25 µM
HCC-2998 colon
  GI50: > 23100 nM
  TGI: > 25 µM
HCT-116 colon
  GI50: 12.7 µM
  TGI: > 25000 nM
HCT-15 colon
  GI50: 6.05 µM
  TGI: > 25 µM
HL-60(TB) leukemia
  GI50: 14.5 µM
  TGI: > 25 µM
HOP-62 NSCLC
  GI50: > 23100 nM
  TGI: > 25 µM
HOP-92 NSCLC
  GI50: > 14500 nM
  TGI: > 25 µM
HS 578T breast
  GI50: 9.65 µM
  TGI: > 25 µM
HT29 colon
  GI50: 9.43 µM
  TGI: > 25000 nM
IGROV1 ovarian
  GI50: > 25000 nM
  TGI: > 25 µM
K-562 leukemia
  GI50: 3890 nM
  TGI: > 25 µM
KM12 colon
  GI50: 8 µM
  TGI: > 25000 nM
LOX IMVI melanoma
  GI50: 24.9 µM
  TGI: > 25000 nM
M14 melanoma
  GI50: 19.4 µM
  TGI: > 25 µM
MALME-3M melanoma
  GI50: > 25000 nM
  TGI: > 25 µM
MCF7 breast
  GI50: 8.03 µM
  TGI: > 25000 nM
MDA-MB-231 breast
  GI50: > 25000 nM
  TGI: > 25 µM
MDA-MB-435
  GI50: 1560 nM
  TGI: > 14.7 µM
MOLT-4 leukemia
  GI50: 15.5 µM
  TGI: > 25 µM
NCI-H226 lung
  GI50: > 22.3 µM
  TGI: > 25 µM
NCI-H23 lung
  GI50: > 25000 nM
  TGI: > 25 µM
NCI-H460 lung
  GI50: 11.1 µM
  TGI: > 25 µM
NCI-H522 lung
  GI50: > 12300 nM
  TGI: > 25 µM
NCI/ADR-RES ovarian
  GI50: > 17300 nM
  TGI: > 25 µM
OVCAR-3 ovarian
  GI50: 17 µM
  TGI: > 25 µM
OVCAR-4 ovarian
  GI50: > 14600 nM
  TGI: > 25 µM
OVCAR-5 ovarian
  GI50: > 25000 nM
  TGI: > 25 µM
OVCAR-8 ovarian
  GI50: > 25000 nM
  TGI: > 25 µM
PC-3 prostate
  GI50: > 21900 nM
  TGI: > 25 µM
RPMI-8226 leukemia
  GI50: > 20300 nM
  TGI: > 25000 nM
RXF 393 renal
  GI50: 10.6 µM
  TGI: > 25 µM
SF-268 CNS
  GI50: > 20900 nM
  TGI: > 25 µM
SF-295 CNS
  GI50: > 17000 nM
  TGI: > 25 µM
SF-539 CNS
  GI50: 9.76 µM
  TGI: > 25 µM
SK-MEL-2 melanoma
  GI50: 14.2 µM
  TGI: > 25 µM
SK-MEL-28 melanoma
  GI50: > 23000 nM
  TGI: > 25 µM
SK-MEL-5 melanoma
  GI50: > 18400 nM
  TGI: > 25 µM
SK-OV-3 ovarian
  GI50: 24.3 µM
  TGI: > 25 µM
SN12C renal
  GI50: 24.5 µM
  TGI: > 25 µM
SNB-19 CNS
  GI50: > 25000 nM
  TGI: > 25 µM
SNB-75 CNS
  GI50: 1970 nM
  TGI: > 25 µM
SR leukemia
  GI50: 6.14 µM
  TGI: > 25 µM
SW-620 colon
  GI50: 8.95 µM
  TGI: > 25000 nM
T-47D breast
  GI50: > 24.1 µM
  TGI: > 25 µM
TK-10 renal
  GI50: > 21000 nM
  TGI: > 25 µM
U251 CNS
  GI50: > 23600 nM
  TGI: > 25000 nM
UACC-257 melanoma
  GI50: > 25000 nM
  TGI: > 25 µM
UACC-62 melanoma
  GI50: 13 µM
  TGI: > 25 µM
UO-31 renal
  GI50: > 23700 nM
  TGI: > 25 µM

## O=C1/C(=C\c2ccc(Br)cc2)CN(C(=O)c2ccccc2F)C/C1=C\c1ccc(Br)cc1
786-0 renal
  GI50: 1690 nM
  TGI: 3.13 µM
A498 renal
  GI50: 2.87 µM
  TGI: 10.4 µM
A549 NSCLC
  GI50: 2.21 µM
  TGI: 6.16 µM
ACHN renal
  GI50: 1950 nM
  TGI: 3.93 µM
BT-549 breast
  GI50: 1820 nM
  TGI: 3.56 µM
CAKI-1 renal
  GI50: 3.05 µM
  TGI: 20 µM
CCRF-CEM leukemia
  GI50: 0.854 µM
  TGI: > 26.5 µM
COLO 205 colon
  GI50: 1.91 µM
  TGI: 3.82 µM
DU-145 prostate
  GI50: 3.79 µM
  TGI: 16.8 µM
HCC-2998 colon
  GI50: 1650 nM
  TGI: 3.16 µM
HCT-116 colon
  GI50: 0.202 µM
  TGI: 417 nM
HCT-15 colon
  GI50: 1.91 µM
  TGI: 6.65 µM
HL-60(TB) leukemia
  GI50: 1.74 µM
  TGI: 5.29 µM
HOP-62 NSCLC
  GI50: 1830 nM
  TGI: 3.82 µM
HOP-92 NSCLC
  GI50: 2210 nM
  TGI: 6.76 µM
HS 578T breast
  GI50: 2.15 µM
  TGI: 6.76 µM
HT29 colon
  GI50: 0.61 µM
  TGI: 2170 nM
IGROV1 ovarian
  GI50: 2290 nM
  TGI: 4.89 µM
K-562 leukemia
  GI50: 1120 nM
  TGI: > 25.1 µM
KM12 colon
  GI50: 0.646 µM
  TGI: 2060 nM
LOX IMVI melanoma
  GI50: 0.334 µM
  TGI: 1010 nM
M14 melanoma
  GI50: 1.79 µM
  TGI: 3.78 µM
MALME-3M melanoma
  GI50: 2610 nM
  TGI: 7.91 µM
MCF7 breast
  GI50: 0.308 µM
  TGI: 1380 nM
MDA-MB-231 breast
  GI50: 2730 nM
  TGI: 7.89 µM
MDA-MB-435
  GI50: 1100 nM
  TGI: 3.33 µM
MOLT-4 leukemia
  GI50: 2.83 µM
  TGI: > 29.5 µM
NCI-H226 lung
  GI50: 5.07 µM
  TGI: 13.6 µM
NCI-H23 lung
  GI50: 2490 nM
  TGI: 6.39 µM
NCI-H460 lung
  GI50: 3.1 µM
  TGI: 11.6 µM
NCI-H522 lung
  GI50: 2150 nM
  TGI: 4.94 µM
NCI/ADR-RES ovarian
  GI50: 2900 nM
  TGI: 17.7 µM
OVCAR-3 ovarian
  GI50: 1.91 µM
  TGI: 3.52 µM
OVCAR-4 ovarian
  GI50: 1960 nM
  TGI: 5.01 µM
OVCAR-5 ovarian
  GI50: 2450 nM
  TGI: 7.06 µM
OVCAR-8 ovarian
  GI50: 2840 nM
  TGI: 15.7 µM
PC-3 prostate
  GI50: 1730 nM
  TGI: 4.21 µM
RPMI-8226 leukemia
  GI50: 119 nM
  TGI: 903 nM
RXF 393 renal
  GI50: 1.6 µM
  TGI: 3.08 µM
SF-268 CNS
  GI50: 2810 nM
  TGI: 8.83 µM
SF-295 CNS
  GI50: 2180 nM
  TGI: 5.64 µM
SF-539 CNS
  GI50: 1.75 µM
  TGI: 3.22 µM
SK-MEL-2 melanoma
  GI50: 4.77 µM
  TGI: 17.5 µM
SK-MEL-28 melanoma
  GI50: 2290 nM
  TGI: 5.65 µM
SK-MEL-5 melanoma
  GI50: 1930 nM
  TGI: 4.04 µM
SK-OV-3 ovarian
  GI50: 2.43 µM
  TGI: 5.71 µM
SN12C renal
  GI50: 1.98 µM
  TGI: 4.92 µM
SNB-19 CNS
  GI50: 2060 nM
  TGI: 6.65 µM
SNB-75 CNS
  GI50: 2030 nM
  TGI: 7.44 µM
SR leukemia
  GI50: 0.339 µM
  TGI: 3.2 µM
SW-620 colon
  GI50: 0.913 µM
  TGI: 2950 nM
T-47D breast
  GI50: 3.47 µM
  TGI: 24.1 µM
TK-10 renal
  GI50: 2840 nM
  TGI: 7.46 µM
U251 CNS
  GI50: 1330 nM
  TGI: 2690 nM
UACC-257 melanoma
  GI50: 2350 nM
  TGI: 6.59 µM
UACC-62 melanoma
  GI50: 1.76 µM
  TGI: 4.03 µM
UO-31 renal
  GI50: 1530 nM
  TGI: 3.16 µM
